Measured values reported in US11771694B2, “Arylamide compounds for treatment and prevention of viral infections” (priority 2020, dated 2023).
Converted amounts (≈) assume the structure as drawn. “And” between values parts separate entries of the source, which are not always exact repeats. Identical values can stand only once. Like-named read-outs stand apart in the source and are kept apart here.

Key:
Acinetobacter spp. = test: Broth microdilution MIC; format: cell-based; settings: 2-3 isolates/organism
Staph. epidermidis = test: Broth microdilution MIC; format: cell-based; settings: Staphylococcus epidermidis; Staph. epidermidis; 2-3 isolates/organism; read-out: MIC
[1] = system: stationary phase cultures of MSSA and MRSA; test: Time-kill against stationary phase cultures of MSSA and MRSA; format: cell-based, Staph. aureus; settings: stationary phase MSSA and MRSA; 2×MIC
Klebsiella oxtoca = test: Broth microdilution MIC; format: cell-based; settings: Klebsiella oxtoca; 2-3 isolates/organism; read-out: MIC
HCoV-OC43 = test: Virus yield reduction assay, HCoV-OC43 on RD cells; format: cell-based; settings: Betacoronavirus 1, 48 hours post-infection
Experimental: (§1) For these assays, brilacidin was included during viruses infection and post infection stages. The EC50 values were calculated from best-fit dose response curves with variable slope in Prism 8.

LPS-induced IL-8 release = test: LPS-induced IL-8 release, THP-1 cells, ELISA; format: cell-based; settings: Homo sapiens, 8-hour exposure, read-out: IC50, inhibition of LPS-induced IL-8 release
[2] = system: Acute Bacterial Skin and Skin Structure Infections (ABSSSI); test: Phase 2 trials in ABSSSI; format: in vivo, human; settings: single dose and 3-day regimen, IV infusion; Phase 2b CTIX-BRI-204
Excerpt: Further details on clinical success rates by baseline pathogen for the ABSSSI Phase 2b study are presented in FIG. 26 (blank cells=no participants presented with the specified baseline pathogen. EOT: End of Treatment. STFU: Short-Term Follow-Up).

Strept. viridians = test: Broth microdilution MIC; format: cell-based; settings: Strept. viridians; 2-3 isolates/organism; read-out: MIC
Staph. saprophyticus = test: Broth microdilution MIC; format: cell-based; settings: Staphylococcus saprophyticus; Staph. saprophyticus; 2-3 isolates/organism; read-out: MIC
[3] = system: Rift Valley fever virus (RFFV); format: cell-based; settings: Vero; 10, 25 and 50 μM; virus treated only; 24 hpi
Enterobacter cloacae = test: Broth microdilution MIC; format: cell-based; settings: 2-3 isolates/organism, read-out: MIC
Haemophilus influenzae = test: Broth microdilution MIC; format: cell-based; settings: 2-3 isolates/organism, read-out: MIC
human PDE4B2 = human PDE4B2 (Homo sapiens, UniProt Q07343); test: PDE-Glo phosphodiesterase assay, PDE4B2; settings: IC50, inhibition of human PDE4B2, 1 μM cAMP substrate
Chain of human PDE4B2 (Q07343 1-564 isoform Q07343-2): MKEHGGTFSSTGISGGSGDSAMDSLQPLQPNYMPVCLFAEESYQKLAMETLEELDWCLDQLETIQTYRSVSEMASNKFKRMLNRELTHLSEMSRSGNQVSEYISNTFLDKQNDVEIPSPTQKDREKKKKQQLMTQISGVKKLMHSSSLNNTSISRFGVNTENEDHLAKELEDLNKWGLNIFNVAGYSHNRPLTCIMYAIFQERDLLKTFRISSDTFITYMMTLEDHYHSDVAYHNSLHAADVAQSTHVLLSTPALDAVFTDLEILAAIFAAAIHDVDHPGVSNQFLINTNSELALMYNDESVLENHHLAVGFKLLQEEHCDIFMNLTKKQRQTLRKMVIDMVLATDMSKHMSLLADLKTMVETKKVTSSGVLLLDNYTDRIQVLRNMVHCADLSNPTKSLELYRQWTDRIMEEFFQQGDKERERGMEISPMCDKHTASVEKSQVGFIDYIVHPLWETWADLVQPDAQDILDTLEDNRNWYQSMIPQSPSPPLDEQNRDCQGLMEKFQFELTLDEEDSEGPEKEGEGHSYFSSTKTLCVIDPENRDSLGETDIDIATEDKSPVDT

Providencia stuartii = test: Broth microdilution MIC; format: cell-based; settings: 2-3 isolates/organism, read-out: MIC
[4] = system: luciferase-expressing pseudotyped virus (rVSV) containing the SARS-CoV-2 spike protein; format: cell-based
Staph. aureus (MRSA) = test: Broth microdilution MIC; format: cell-based; settings: Staphylococcus aureus; Staph. aureus (MRSA); 2-3 isolates/organism; read-out: MIC
[5] = system: LPS-induced MMP-9 release; test: LPS-induced MMP-9 release, NR8383 cells, ELISA; format: cell-based; settings: Rattus norvegicus, 8-hour exposure, read-out: IC50, inhibition of LPS-induced MMP-9 release
Serratia marcescens = test: Broth microdilution MIC; format: cell-based; settings: 2-3 isolates/organism, read-out: MIC
HCoV-NL63 = test: Virus yield reduction assay, HCoV-NL63 on Vero cells; format: cell-based; settings: Human coronavirus NL63, 48 hours post-infection
Experimental: as §1

Vero cells = settings: 24 hours
[6] = system: LPS-induced TNF-α release; test: LPS-induced TNF-α release, NR8383 cells, ELISA; format: cell-based; settings: Rattus norvegicus, 8 h; read-out: IC50, inhibition of LPS-induced TNF-α release
Staph. spp. coagulase- = test: Broth microdilution MIC; format: cell-based; settings: Staph. spp. coagulase-; 2-3 isolates/organism; read-out: MIC
HCoV-229E = test: Virus yield reduction assay, HCoV-229E on Huh-7 cells; format: cell-based; settings: Human coronavirus 229E, 48 hours post-infection
Experimental: as §1

SARS-CoV-2 = test: microbe, parasite or virus in culture; format: cell-based
[7] = Severe acute respiratory syndrome coronavirus 2, Calu-3

N=C(N)NCCCCC(=O)Nc1cc(C(F)(F)F)cc(NC(=O)c2cc(C(=O)Nc3cc(C(F)(F)F)cc(NC(=O)CCCCNC(=N)N)c3OC3CCNC3)ncn2)c1OC1CCNC1 (stereo not drawn) [brilacidin]
MIC (Acinetobacter spp.): 4 µg/mL (≈ 4.27 µM) | MIC (Staph. epidermidis): 0.25 to 0.5 µg/mL (≈ 0.267 to 0.534 µM) | time-kill at >10^3 Log10 Reductions [1]: ≤ 2 hours | MIC (Klebsiella oxtoca): 2 to 8 µg/mL (≈ 2.13 to 8.54 µM) | EC50 (HCoV-OC43): 4810 ± 950 nM | IC50 (LPS-induced IL-8 release): 10800 nM | efficacy (early clinical response) [2]: comparable to that a 7-day regimen of daptomycin | MIC (Strept. viridians): 2 to 8 µg/mL (≈ 2.13 to 8.54 µM) | MIC (Staph. saprophyticus): 0.25 to 0.5 µg/mL (≈ 0.267 to 0.534 µM) | inhibition compared to the DMSO-control [3]: dose-dependent inhibition | MIC (Enterobacter cloacae): 0.5 to 4 µg/mL (≈ 0.534 to 4.27 µM) | MIC (Haemophilus influenzae): 4 to 8 µg/mL (≈ 4.27 to 8.54 µM) | IC50 (human PDE4B2): ~3000 nM and 3000 nM | MIC (Providencia stuartii): 16 to 64 µg/mL (≈ 17.1 to 68.3 µM) | inhibition of pseudovirus (rVSV) attachment and entry [4]: inhibited the pseudovirus at both concentrations tested in a comparable manner | MIC (Staph. aureus (MRSA)): 0.5 to 1 µg/mL (≈ 0.534 to 1.07 µM) | IC50 [5]: 2300 nM | MIC (Serratia marcescens): 32 µg/mL (≈ 34.2 µM) | EC50 (HCoV-NL63): 2450 ± 52 nM | cell viability compared to the DMSO vehicle control (Vero cells; concentrations higher than 40 μM): dose-dependent, statistically significant decrease in cell viability | cell viability compared to the DMSO vehicle control (Vero cells; up to 40 μM): did not affect cell viability | IC50 [6]: 442 nM | MIC (Staph. spp. coagulase-): 0.25 to 0.5 µg/mL (≈ 0.267 to 0.534 µM) | EC50 (HCoV-229E): 1950 ± 67 nM | reduction of infectious viral titer (SARS-CoV-2; 10 µM): 95% | reduction of infectious viral titer (SARS-CoV-2; 20 µM): 97% | Selectivity Index (CC50/IC50) (SARS-CoV-2; Calu-3): 426 | inhibition exerted at the MOIs of 0.1 and 0.05 (SARS-CoV-2; Calu-3, 10 μM): comparable to each other | inhibition of virus at the lower MOIs (SARS-CoV-2; Calu-3, 10 μM, MOIs 0.01 and 0.001): not showing statistical significance | infectious virus titer, treatment of virus alone (E, entry) (SARS-CoV-2; Calu-3, inoculum incubated with 5, 10 or 20 μM for 1 hour, no pre- or post-treatment of cells, Washington and Italy strains): marked reductions of virus titer | IC50 (SARS-CoV-2; [7]): 565 nM | IC90 (SARS-CoV-2; [7]): 2630 nM | inhibition at 20 µM (SARS-CoV-2; Severe acute respiratory syndrome coronavirus 2, Calu-3, read-out: inhibition of infectious viral titer): 61%
